Measurements: PubChem BioAssay (NCI)
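Cells were grown in 96-well plates and exposed to each compound for 48 hours at five concentrations; endpoints were interpolated linearly between bracketing concentrations, or set to the highest concentration if not reached. The concentration for 50% growth inhibition is given as GI50. TGI marks complete inhibition of growth.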

Columns and labels:
Assay in all cases: NCI tumour cell line growth inhibition, 48 h
MOLT-4 leukemia = test system: MOLT-4 leukemia
SF-539 CNS = test system: SF-539 CNS
SK-MEL-2 melanoma = test system: SK-MEL-2 melanoma
NCI-H460 lung = test system: NCI-H460 lung
OVCAR-4 ovarian = test system: OVCAR-4 ovarian
HCT-116 colon = test system: HCT-116 colon
SF-295 CNS = test system: SF-295 CNS
M14 melanoma = test system: M14 melanoma
LOX IMVI melanoma = test system: LOX IMVI melanoma
SNB-75 CNS = test system: SNB-75 CNS
NCI-H522 lung = test system: NCI-H522 lung
SN12C renal = test system: SN12C renal
CCRF-CEM leukemia = test system: CCRF-CEM leukemia
DU-145 prostate = test system: DU-145 prostate
HCT-15 colon = test system: HCT-15 colon
SF-268 CNS = test system: SF-268 CNS
SNB-19 CNS = test system: SNB-19 CNS
K-562 leukemia = test system: K-562 leukemia
UACC-257 melanoma = test system: UACC-257 melanoma
HOP-92 NSCLC = test system: HOP-92 NSCLC
A549 NSCLC = test system: A549 NSCLC
OVCAR-3 ovarian = test system: OVCAR-3 ovarian
COLO 205 colon = test system: COLO 205 colon
786-0 renal = test system: 786-0 renal
U251 CNS = test system: U251 CNS
SK-MEL-28 melanoma = test system: SK-MEL-28 melanoma

SMILES: CC[CH2][Pb]([CH2]CC)([CH2]CC)[O]C(=O)C(F)(F)F
- TGI (MOLT-4 leukemia): 627 nM
- GI50 (SF-539 CNS): 156 nM
- TGI (SF-539 CNS): 424 nM
- GI50 (SK-MEL-2 melanoma): 214 nM
- TGI (SK-MEL-2 melanoma): 462 nM
- GI50 (NCI-H460 lung): 113 nM
- TGI (NCI-H460 lung): 398 nM
- GI50 (OVCAR-4 ovarian): 38.5 nM
- TGI (OVCAR-4 ovarian): 178 nM
- GI50 (HCT-116 colon): 79.8 nM
- TGI (HCT-116 colon): 262 nM
- GI50 (SF-295 CNS): 182 nM
- TGI (SF-295 CNS): 434 nM
- GI50 (M14 melanoma): 91.1 nM
- TGI (M14 melanoma): 330 nM
- GI50 (LOX IMVI melanoma): 89.1 nM
- TGI (LOX IMVI melanoma): 255 nM
- GI50 (SNB-75 CNS): 67.9 nM
- TGI (SNB-75 CNS): 377 nM
- GI50 (NCI-H522 lung): 181 nM
- TGI (NCI-H522 lung): 348 nM
- GI50 (SN12C renal): 195 nM
- TGI (SN12C renal): 535 nM
- GI50 (CCRF-CEM leukemia): 90.6 nM
- TGI (CCRF-CEM leukemia): 775 nM
- GI50 (DU-145 prostate): 188 nM
- TGI (DU-145 prostate): 516 nM
- GI50 (HCT-15 colon): 124 nM
- TGI (HCT-15 colon): 587 nM
- GI50 (SF-268 CNS): 156 nM
- TGI (SF-268 CNS): 430 nM
- GI50 (SNB-19 CNS): 206 nM
- TGI (SNB-19 CNS): 810 nM
- GI50 (K-562 leukemia): 91.8 nM
- TGI (K-562 leukemia): 552 nM
- GI50 (UACC-257 melanoma): 154 nM
- TGI (UACC-257 melanoma): 455 nM
- GI50 (HOP-92 NSCLC): 29.1 nM
- TGI (HOP-92 NSCLC): 223 nM
- GI50 (A549 NSCLC): 172 nM
- TGI (A549 NSCLC): 563 nM
- GI50 (OVCAR-3 ovarian): 88.5 nM
- TGI (OVCAR-3 ovarian): 239 nM
- GI50 (COLO 205 colon): 164 nM
- TGI (COLO 205 colon): 374 nM
- GI50 (786-0 renal): 165 nM
- TGI (786-0 renal): 376 nM
- GI50 (U251 CNS): 156 nM
- TGI (U251 CNS): 348 nM
- GI50 (SK-MEL-28 melanoma): 124 nM
- TGI (SK-MEL-28 melanoma): 452 nM
